# Publication PMC10101016, “The Photoactive Photosynthetic Reaction Center of a Rhodobacter sphaeroides Mutant Lacking 3-Vinyl (Bacterio)Chlorophyllide a Hydratase Contains 3-Vinyl Bacteriochlorophyll a” (Microbiology Spectrum, 2023)
# Like-named read-outs stand apart in the source and are kept apart here.
# Molecular target: T1, reaction center (WT-RC, V-RC) (Cereibacter sphaeroides, UniProt Q3J1A5+Q3J1A6)
# T1 construct: gene pufL
structure (smiles),measurement,setting,value
C=Cc1c(C)c2cc3nc(c4c5[nH]c(cc6nc(cc1[nH]2)[C@H](C)[C@H]6CC)c(C)c5C(=O)[C@@H]4C(=O)OC)[C@@H](CCC(=O)OC/C=C(\C)CCC[C@H](C)CCC[C@H](C)CCCC(C)C)[C@@H]3C [3V-Bpheo a],"pigment extraction and HPLC of purified RC, absorption spectrum","V-RC from BFcfh-puhA, H-sites","The V-RC was estimated to contain four 3V-Bchl a molecules, two 3V-Bpheo a molecules"
COC(C)(C)C/C=C/C(C)=C/C=C/C(C)=C/C=C/C(C)=C/C=C/C=C(C)/C=C/C=C(\C)CC/C=C(\C)CCC=C(C)C [SE],"pigment extraction and HPLC of purified RC, absorption spectrum","WT-RC and V-RC, photoheterotrophically grown cells","except for the presence of spheroidene (SE), which reflects the culture conditions"
COC(C)(C)C(=O)/C=C/C(C)=C/C=C/C(C)=C/C=C/C(C)=C/C=C/C=C(C)/C=C/C=C(\C)CC/C=C(\C)CCC=C(C)C [SO],"pigment extraction and HPLC of purified RC, absorption spectrum","WT-RC and V-RC, semiaerobically grown cells","two Bpheo a molecules, and one spheroidenone (SO) molecule"
